Key:
MiaPaCa-2 = assay: Soft agar colony formation; type: cell-based, human
Protocol: FIG. 1. Effects of some compounds of Formula (I) on RalGEF inhibitor on soft agar growth and normal growth in 2D of pancreatic carcinoma cell lines. In FIGS. 1A and 1B, Panc-1 (ATCC® CRL-1469™) and MiaPaCa-2 (ATCC® CRL-1420™) mutant Ras containing pancreatic tumor cell lines were plated in soft agar in the presence of 10 μM or 0.9 μM of compound I-1 and scored for the formation of colonies. In FIGS. 1C and 1D, compound I-1 was then tested for the ability to inhibit cell growth on the same cell lines under normal 2D growth conditions on plastic. “0” is the carrier. Cells were seeded at the same density and scored after two weeks in culture.
Human pancreatic tumor cell lines MiaPaca-2 and Panc-1 contain activated K-Ras and were used in the initial screen to identify compound I-1. Soft agar colony formation remains an established in vitro assay to predict tumorigenicity and was used to predict tumorigenicity for compound I-1.
Several other compounds were tested against the Mia Paca-2 cell line using the soft agar colony formation in vitro assay in two experiments. For each table, DMSO was used as a control and, as such, within each table, the DMSO colonies are the measure against which each measurement in the corresponding table is compared.

[1] = target: T1, interaction of K-Ras with RalGDS (Homo sapiens, UniProt Q12967); assay: Ras/RalGEF binding, immunoprecipitation and immunoblot from co-transfected HEK-293 cells; settings: 10 μM, HA K-Ras 12v and GFP-RalGDS, IP/IB, FIG. 3A
T1 construct: expressed in transfected cells; host or cells: HEK-293
T1 sequence (Q12967 1-914): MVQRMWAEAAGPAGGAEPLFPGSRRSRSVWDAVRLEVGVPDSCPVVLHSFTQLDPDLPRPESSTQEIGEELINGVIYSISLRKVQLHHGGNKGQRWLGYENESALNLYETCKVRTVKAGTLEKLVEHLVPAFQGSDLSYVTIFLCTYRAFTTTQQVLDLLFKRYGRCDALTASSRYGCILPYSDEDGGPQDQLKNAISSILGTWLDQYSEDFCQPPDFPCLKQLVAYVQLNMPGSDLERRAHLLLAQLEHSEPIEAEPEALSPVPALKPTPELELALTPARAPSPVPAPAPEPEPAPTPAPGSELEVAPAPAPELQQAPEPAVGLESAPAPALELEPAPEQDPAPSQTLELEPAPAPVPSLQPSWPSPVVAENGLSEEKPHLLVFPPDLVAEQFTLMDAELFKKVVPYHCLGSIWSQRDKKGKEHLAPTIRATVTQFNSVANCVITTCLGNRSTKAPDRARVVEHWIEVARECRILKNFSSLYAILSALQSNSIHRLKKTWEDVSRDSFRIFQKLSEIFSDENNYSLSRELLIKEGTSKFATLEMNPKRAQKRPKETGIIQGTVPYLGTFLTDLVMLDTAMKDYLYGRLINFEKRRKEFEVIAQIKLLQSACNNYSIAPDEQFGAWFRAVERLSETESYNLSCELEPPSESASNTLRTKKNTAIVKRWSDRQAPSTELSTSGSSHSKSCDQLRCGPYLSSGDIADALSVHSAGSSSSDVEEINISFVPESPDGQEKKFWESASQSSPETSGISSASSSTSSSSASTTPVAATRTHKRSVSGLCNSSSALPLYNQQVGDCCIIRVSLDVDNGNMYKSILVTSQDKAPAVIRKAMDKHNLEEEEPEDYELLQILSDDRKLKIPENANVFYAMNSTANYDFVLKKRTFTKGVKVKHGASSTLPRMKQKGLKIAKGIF

Ras/Raf/MAPK pathway = assay: MAPK pathway activation by phosphoERK antibody in cells with endogenous hyper-activated Ras; type: cell-based; settings: 10 μM
Protocol: Specific Inhibition of endogenous Ras/RalGEF signaling. FIG. 4. Specific suppression of Ral activation by some compounds of Formula (I). Cells with endogenous hyper-activated Ras were assayed for endogenous Ral activation in the presence or absence of inhibitor (10 μM) using a Cell Biolabs (SanDiego Calif.) kit. Compound I-1 was dissolved in DMSO; DMSO serves as the carrier negative control. IP is immunoprecipitation. IB is immunoblot. Cell lysates were then assayed for the levels of MAPK pathway activation using a phosphoERK antibody. They were the same. Actin is a loading control.
RalGEFs drive Ral into the active, GTP bound form so it can bind its effector RalBP1. […] Commercially available kits available from several vendors use RalBP1 attached to beads as an affinity reagent specific to the active form of Ral. By measuring the level of activated Ral and comparing it to the total levels of Ral, it is possible to measure the state of endogenous Ral activation. We assayed untransfected cells containing endogenous hyper-activated Ras for the effects of compound I-1 treatment on endogenous levels of active Ral levels.

Mia-PaCa-2 cells = assay: Mia-PaCa-2 sub-cutaneous xenograft, primary tumor growth and lung metastasis; type: in vivo, NRG mice; settings: 10 mg/kg ip every other day for 2 weeks, scored one week later
Protocol: Some compounds of Formula (I) suppress pancreatic cancer cell metastasis—FIG. 6. NRG mice were sub-cutaneously inoculated with PBS (“no tumor cells”) or 5×10^6 Ras driven Mia-PaCa-2 cells. Mice were allowed to recover for 1 week and then injected (ip) with PBS/DMSO carrier or 10 mg/kg of compound I-1 every other day for 2 weeks. One week later, mice were scored for primary tumor growth and lung metastasis.

SMILES: COc1cccc(CNc2nc(CN(C)Cc3cccc(OC)c3)nc3sc(C)c(C)c23)c1 [Compound I-1]
- ability of the cells to grow in soft agar (MiaPaCa-2; 10 μM, FIG. 1B): almost completely blocked
- Colonies in agar (MiaPaCa-2; 10 μM, Table 2 experiment, DMSO control 182 ± 7 colonies): 0 ± 0
- Colonies in agar (MiaPaCa-2; 10 μM, Table 3 experiment, DMSO control 1686 ± 114 colonies): 12 ± 1
- tumorigenic phenotype in vitro (MiaPaCa-2; FIG. 1B): blocks the tumorigenic phenotype in vitro at low μM or sub μM levels
- IC50 (MiaPaCa-2; Homo sapiens, MIA PaCa-2, read-out: IC50 (concentration that inhibits 50% of colony formation)): < 1 µM
- stable association of Ras and RalGDS [1]: inhibited the stable association of Ras and RalGDS
- Ras/Raf/MAPK pathway activation (levels of phospho ERK) (Ras/Raf/MAPK pathway): no inhibition of the Ras/Raf/MAPK pathway activation was detected
- effects on the primary tumor (Mia-PaCa-2 cells): not obvious
- lung metastasis (Mia-PaCa-2 cells; FIG. 6): metastasis was inhibited
